The source of these data is patent US5441949A, “Carbapenem antibiotic compounds” (Zeneca Limited, priority 1992, dated 1995).

One test relates to S. aureus Oxford. In words: antibacterial activity in vitro, agar-dilution MIC, Diagnostic Sensitivity Test, inoculum 10^4 CFU/spot. Format: cell-based. The following applies: Staphylococcus aureus.
Another test deals with E. coli DCO. The test can be described thus: microbe, parasite or virus in culture. Particulars: Escherichia coli. The source says: The antibacterial activity is described in terms of the minimum inhibitory concentration (MIC) determined by the agar-dilution technique with an inoculum size of 10^4 CFU/spot.
A further test deals with P. morganii I + 001. In words: antibacterial activity in vitro, agar-dilution MIC, Diagnostic Sensitivity Test, inoculum 10^4 CFU/spot. The class given is cell-based. The following applies: Morganella morganii.
Test [1] relates to Enterobacter cloacae P99-. The description is as above. Format: cell-based.
In another test the test system is B. fragilis AMP S. Described as above. Format: cell-based. Particulars: Bacteroides fragilis.

Structures can show the parent of a compound that is named as a salt.

`C[C@@H](O)[C@H]1C(=O)N2C(C(=O)O)=C(S[C@@H]3CN[C@H](C(=O)Nc4cc(C(=O)O)c5ncccc5c4)C3)[C@H](C)[C@H]12` [Example 1, (1R,5S,6S,8R,2'S,4'S) 2-(2-(8-Carboxyquinol-6-ylcarbamoyl)pyrrolidin-4-ylthio)-6-(1-hydroxyethyl)-1-methylcarbapenem-3-carboxylic Acid Disodium Salt]: the MIC stood at 0.13 µg/mL with S. aureus Oxford; 0.03 µg/mL with E. coli DCO; 0.03 µg/mL in the test on P. morganii I + 001; 0.03 µg/mL in test [1]; 0.5 µg/mL against B. fragilis AMP S.
